Series [1] in a line: DPPH radical scavenging activity. Particulars: sample solutions 1-100 μM, 30 minutes at room temperature in the dark, absorbance 517 nm, FIG. 10. The format is biochemical. Here is the method:
Ceratonia siliqua B obtained in Example 2 was used to measure the DPPH radical scavenging activity of Ceratonia siliqua B.
First, Ceratonia siliqua B obtained in Example 2 was accurately weighed out and dissolved in methanol to prepare a sample solution with a concentration of 100 μM. This sample solution having a concentration of 100 μM was further diluted with methanol to obtain sample solutions with different concentrations of 1 μM, 5 μM, 10 μM and 50 μM. Next, 2 mg of DPPH (2,2-diphenyl-1-picrylhydrazyl) was dissolved in 50 mL of methanol to prepare a 100 μM DPPH solution.
A 190 μL portion of the DPPH solution was placed in each of wells of a 96-well microplate, and 10 μL of the sample solution was quickly added thereto. […] Thereafter, the absorbance at 517 nm (Asample) was measured with a microplate reader. The reaction solution to which methanol was added instead of the sample solution was used as a blank, and the absorbance of the blank (Ablank) was measured. In addition, the absorbance (Asample blank) due to coloration of the sample solution itself at each concentration was measured as a sample blank. […]
The radical scavenging rate (%) was determined by the following equation.
[formula] • wherein Ablank is the absorbance of the blank, Asample is the absorbance of the sample solution, and Asample blank is the absorbance of the sample blank.
On the technique in general: DPPH is a stable violet radical that fades when it is reduced.

Series [2] has as its system HepG2 cells. Briefly: MTT cytotoxicity test on HepG2 cells. The format is cell-based, human. The note with it: concentrations of 1 to 100 μM, 48 hours, FIG. 11. On the procedure:
(§1) In this test, a HepG2 cell, a human liver-derived tumor cell line was used as a living cell. HepG2 cells were cultured in a DMEM medium (containing 10% FBS, 100 U/mL penicillin and […] streptomycin) in the presence of 5% CO2 at 37° C. and saturated humidity.
(§2) Ceratonia siliqua B was diluted with a DMEM medium to obtain sample solutions with different concentrations of 1 μM, 5 μM, 10 μM, 50 μM and 100 μM.
First, an MTT test was performed to confirm the presence or absence of cytotoxicity of Ceratonia siliqua B against HepG2 cells. HepG2 cells that have been subcultured for three generations or more were treated with trypsin to prepare a single cell suspension having a concentration of 1×10^5 cells/mL. A 100 μL portion of this cell suspension was seeded in each well of a 96-well microplate and cultured in a CO2 incubator for 24 hours. After culturing, the supernatant was removed, and the wells were divided into a control (blank control) group and a test group. […] After 4 hours, the supernatant was removed, a 150 μL portion of DMSO was added to each well, and the absorbance at 570 nm was measured with a microplate reader. […]
(§3) The cell viability of the test group was calculated taking the value for the control (blank control) group as 100.
On the technique in general: Formazan colour is commonly taken as a measure of viable cells.

In series [3] the test system is HepG2 cells. In words: Measurement of ROS in HepG2 cells (hydrogen peroxide induced, DCFH-DA). In kind it is cell-based, human. The note with it: 1-100 μM, 24 hours pre-culture, 400 μM hydrogen peroxide 90 minutes, FIG. 12. On the procedure: Ceratonia siliqua B obtained in Example 2 was used to examine the effect of Ceratonia siliqua B on the generation of reactive oxygen species (ROS) in living cells.
as §1
A HepG2 cell suspension having a concentration of 1×10^5 cells/mL was prepared, and a 100 μL portion of the cell suspension was seeded in each well of a 96-well microplate and cultured in a CO2 incubator for 24 hours. These wells were divided into a blank control group, a positive control group and a test group. […] Thereafter, the medium in each well was removed, 100 μL of PBS was added thereto, and fluorescence intensity at 535 nm was measured at an excitation wavelength of 485 nm. The amount of ROS generated in the positive control group and the test group was calculated taking the fluorescence intensity of the blank control group as 1.0 (basal). […]

For series [4], the system named is B16 melanoma cells. In words: MTT cytotoxicity test on B16 melanoma cells. The format is cell-based, mouse. Particulars: concentrations of 1 to 100 μM, 48 hours, FIG. 13. On the procedure:
(§4) In this test, B16 melanoma cells were used. A B16 melanoma cell, a mouse skin melanoma-derived cell line, has melanogenic capacity. B16 melanoma cells were cultured in a DMEM medium (containing 10% FBS, 100 U/mL penicillin and […] streptomycin) in the presence of 5% CO2 at 37° C. and saturated humidity.
as §2
First, an MTT test was performed to confirm the presence or absence of cytotoxicity of Ceratonia siliqua B against B16 melanoma cells. B16 melanoma cells that had been subcultured for three generations or more were treated with trypsin to prepare a single cell suspension having a concentration of 3×10^4 cells/mL. A 100 μL portion of this cell suspension was seeded in each well of a 96-well microplate and cultured overnight in a CO2 incubator. The supernatant was removed from each well, and the wells were divided into a control (blank control) group and a test group. […] After 4 hours, the supernatant was removed, a 150 μL portion of DMSO was added to each well, and the absorbance at 570 nm was measured with a microplate reader. […]
as §3

Series [5] has as its system B16 melanoma cells. Briefly: Amount of melanin produced in B16 melanoma cells (melanogenesis inhibition). The format is cell-based, mouse. The note with it: for inhibition at 10 µM: concentration 10 μM. Here is the method: as §4, §2
A single cell suspension of B16 melanoma cells was prepared, and 4×10^4 B16 melanoma cells were seeded in each well of a 12-well microplate. After culturing overnight in a CO2 incubator, the supernatant was removed, and the wells were divided into a blank control group, a positive control group and a test group. A 1 mL portion of a DMEM medium was added to each well of the blank control group, a 1 mL portion of each of solutions of L-ascorbic acid dissolved in DMEM medium at different concentrations (a concentration of L-ascorbic acid: 0.1 μM, 5 μM, 10 μM) was added to each well of the positive control group, and a 1 mL portion of each of the sample solutions from the above (b) was added to each well of the test group. After culturing for 48 hours, the supernatant was removed from each well followed by washing twice with PBS buffer, treatment with trypsin and addition of 1.2 mL of PBS buffer to prepare a single cell suspension. A 200 μL aliquot of this cell suspension was taken to determine the protein content. The remaining cell suspension was centrifuged at 3000 rpm for 5 minutes to remove the supernatant. Thereafter, 250 μL of a 1 M NaOH solution containing 1% DMSO was added thereto and dissolved for 30 minutes in a water bath heated to 80° C. A 200 μL aliquot of this solution was taken and the absorbance at 405 nm (Atest group, Apositive control group, Ablank control group) was measured. The test was performed in triplicate (3 wells) for the blank control group, for the positive control group and for each concentration of the sample solution in the test group (n=3).
The intracellular melanogenesis inhibition rate (%) was determined for the test group and the positive control group by the following equations:
[formula] • wherein Atest group is the absorbance of the test group, Apositive control group is the absorbance of the positive control group, and Ablank control group is the absorbance of the blank control group.

[6] abbreviates: Mus musculus, B16, 48 h, 48 hours, B16 melanoma cells, read-out: Melanogenesis inhibition rate (%).

Some results are limits rather than exact numbers.

On to `COc1cc(/C=C/COC(=O)C(C)C)cc(OC)c1O[C@@H]1O[C@H](CO)[C@@H](O)[C@H](O)[C@H]1O` [Ceratonia siliqua B], for which the “DPPH radical scavenging activity” value in series [1] is given as “scavenge DPPH radicals in a concentration-dependent manner”. In series [2], the “cytotoxicity against HepG2 cells (MTT, cell viability)” value is listed as “no cytotoxicity”. Besides, in series [3], the “ROS generation inhibiting effect in HepG2 cells” value is recorded as “inhibited the increase in ROS induced by hydrogen peroxide in HepG2 cells in a concentration-dependent manner”. Moreover, the “cytotoxicity against B16 melanoma cells (MTT, cell viability)” value in series [4] is “no cytotoxicity”. The inhibition (usually the drop in the measured response relative to a control, in per cent) at 10 µM in series [5] (setting [6]) came out at 20.2%. In addition, the inhibition at 50 µM in series [5] (Mus musculus, B16, 48 h, concentration 50 μM, 48 hours, B16 melanoma cells, read-out: Melanogenesis inhibition rate (%)) came to 25.6%. In series [5] (Mus musculus, B16, 48 h, concentration 100 μM, 48 hours, B16 melanoma cells, read-out: Melanogenesis inhibition rate (%)), the inhibition at 100 µM is greater than 30%. The “inhibition effect on melanogenesis in B16 melanoma cells (in words)” value in series [5] (concentration of 10 to 100 μM, P<0.05) is listed as “significant inhibition effect on melanogenesis”.

Consider `O=C1O[C@H]([C@@H](O)CO)C(O)=C1O` [L-Ascorbic acid, L-ascorbic acid, reference compound], for which the inhibition at 0.1 µM in series [5] (Mus musculus, B16, 48 h, concentration 0.1 μM, 48 hours, B16 melanoma cells, read-out: Melanogenesis inhibition rate (%)) amounted to 9.2%. The inhibition at 5 µM in series [5] (Mus musculus, B16, 48 h, concentration 5 μM, 48 hours, B16 melanoma cells, read-out: Melanogenesis inhibition rate (%)) was found to be 15.6%. Also, the inhibition at 10 µM in series [5] (setting [6]) came to 32.8%.
